Data as given in patent US10006009B2, “Codon-optimized gene for mutated shrimp luciferase and method for use thereof” (JNC CORPORATION, priority 2013, dated 2018).
Entries after “also recorded” stand apart in the source; their conditions may differ.

Tests used:
Format in all cases: biochemical
[1] = biological target: T1, purified codon-optimized nanoKAZ domain protein (Oplophorus gracilirostris, UniProt Q9GV45, A31E/A60N/A81I/F95D/I117V/K70R/L54V/L99Q/M102K/N193R/P142E/Q151K/Q38R/Q45L/V71I/Y165I); test: Substrate specificity of purified nanoKAZ; settings: purified nanoKAZ 0.03 μg, 1 μg substrate, coelenterazine = 1.0
T1 construct: histidine tag (6 His) (N, cleaved yes); ZZ domain (N, cleaved yes); made in house; host or cells: Escherichia coli BL21
Experimental: The luminescence reaction was started by addition of 5 μl (0.03 μg) of the purified enzyme solution obtained in EXAMPLE 7 to 100 μl of 50 mM Tris-HCl (pH 7.6)-10 mM EDTA (Wako Pure Chemical Industries, Ltd.) containing 1 μg of coelenterazine (manufactured by JNC) or its analogues. The luminescence activity was measured with a luminometer (manufactured by Atto Co.: AB2200) for 60 seconds. The maximum intensity of luminescence (Imax) and the level integrated for 60 seconds were represented as relative light units (rlu).
The luminescence activity of the purified codon-optimized nanoKAZ domain was measured in accordance with the method described in EXAMPLE 8. […] The results obtained using the purified codon-optimized nanoKAZ as the enzyme solution are in good agreement with the results found by using the culture cell solution as the enzyme solution.

purified nanoKAZ = biological target: T2, purified nanoKAZ (Oplophorus gracilirostris, UniProt Q9GV45, A31E/A60N/A81I/F95D/I117V/K70R/L54V/L99Q/M102K/N193R/P142E/Q151K/Q38R/Q45L/V71I/Y165I); test: Emission spectra by purified nanoKAZ using coelenterazine analogues; settings: purified nanoKAZ 3 μg, substrate 5 μg, 22-25° C.
T2 construct: histidine tag (6 His) (N, cleaved yes); ZZ domain (N, cleaved yes); made in house; host or cells: Escherichia coli BL21
Experimental: The luminescence reaction was started by addition of a solution of substrate coelenterazine (5 μg/5 μL) in ethanol to a solution of nanoKAZ (3 μg) in 30 mM Tris-HCl (pH 7.6) containing 500 μl of 10 mM EDTA. The luminescence spectra were measured in a quartz cell with an optical path length of 10 mm, with a fluorescence spectrophotometer (manufactured by JASCO Corp., FP-6500) with the excitation light source turned off to correct for the spectra. The measurement conditions used were as follows: band width: 20 nm, response: 0.5 second, scan speed: 2000 nm/min at 22-25° C. The maximum intensity of luminescence (λmax, nm) and half bandwidth (nm) were determined from the luminescence spectra measured, which are summarized in TABLE 8.

[2] = biological target: T3, codon-optimized nanoKAZ domain protein (Oplophorus gracilirostris, UniProt Q9GV45, A31E/A60N/A81I/F95D/I117V/K70R/L54V/L99Q/M102K/N193R/P142E/Q151K/Q38R/Q45L/V71I/Y165I); test: Substrate specificity and luminescence pattern of nanoKAZ secreted into culture medium; settings: for luminescence pattern: FIG. 4; for Relative luminescence activity integrated (1 min) / Relative maximum luminescence intensity (Imax): culture medium with secreted nanoKAZ as enzyme, coelenterazine = 1.0
T3 construct: expressed in transfected cells; host or cells: CHO-K1, HeLa or COS-1 cells transfected with pcDNA3-nanoKAZ or pcDNA3-GLsp-nanoKAZ
Experimental: The luminescence reaction was started by addition of 5 μL of the enzyme solution for assay obtained in EXAMPLE 3 to 100 μL of 50 mM Tris-HCl (pH 7.6)-10 mM EDTA (Wako Pure Chemical Industries, Ltd.) containing 0.5 μg of coelenterazine (manufactured by JNC Corp.). The luminescence activity was measured for 60 seconds with a luminometer (manufactured by Atto Co.: AB2200). The maximum intensity of luminescence (Imax) and the luminescence activity integrated for 60 seconds were represented as relative light units (rlu). On the other hand, the luminescence activity of firefly luciferase was used as an internal standard to confirm the efficiency of transfection. Five microliters of the enzyme solution for assay obtained in EXAMPLE 3 was added to 100 μL of the enzyme assay solution (manufactured by Promega Corp.) to start the luminescence reaction. The luminescence activity was measured with a luminometer (manufactured by Atto Co.: AB2200) by integration of luminescence for 10 seconds, which was shown as relative light units (rlu). […] While the transfection efficiencies vary in depending upon cell types, the transfection efficiencies of pcDNA3-nanoKAZ and pcDNA3-GLsp-nanoKAZ are almost the same. The results obtained by measuring the luminescence activity of CHO-K1 cells, HeLa cells and COS-1 cells in culture medium and cells are shown in TABLE 4. Evidently, pcDNA3-nanoKAZ without a signal peptide sequence for secretion was secreted comparably or more efficiently than pcDNA3-GLsp-nanoKAZ.
Coelenterazine analogues used in the substrate specificity experiments were synthesized by the methods described in the respective papers. More specifically, bis-coelenterazine, furimazine and C2-coelenterazine analogue were synthesized by the methods described in Nakamura et al. (1997) Tetrahedron Lett. 38:6405-6406, Hall et al. (2012) ACS Chem. Biol. […] and Inouye et al. (2010) Anal. Biochem. 407: 247-252, respectively. Using as an enzyme solution for coelenterazine or its analogues the culture medium, into which nanoKAZ was secreted as described in EXAMPLE 4, the luminescence activity was measured. Among coelenterazine analogues, the relative maximum intensity of luminescence for h-, bis-, 3me- and 3meo-coelenterazines was at least 10-fold higher and the relative luminescence activity integrated for 1 minute of h- and bis-coelenterazines was at least 10-fold higher, than the others. These luminescence patterns are illustrated in FIG. 4.

T3 sequence (Q9GV45 28-196 with tags or gaps with the stated changes limits assumed): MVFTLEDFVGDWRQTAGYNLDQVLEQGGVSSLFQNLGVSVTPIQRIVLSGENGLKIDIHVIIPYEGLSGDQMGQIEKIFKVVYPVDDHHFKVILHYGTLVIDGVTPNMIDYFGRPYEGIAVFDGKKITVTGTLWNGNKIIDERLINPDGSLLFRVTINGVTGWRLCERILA
T1 sequence (Q9GV45 other isoform, or with tags, fused parts or gaps with the stated changes): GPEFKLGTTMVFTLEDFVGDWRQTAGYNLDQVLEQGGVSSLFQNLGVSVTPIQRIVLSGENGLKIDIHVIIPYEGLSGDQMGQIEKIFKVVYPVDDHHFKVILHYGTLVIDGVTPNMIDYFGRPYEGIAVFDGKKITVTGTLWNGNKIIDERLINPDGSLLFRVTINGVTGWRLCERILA
T2 sequence (Q9GV45 other isoform, or with tags, fused parts or gaps with the stated changes): as above

Compound | Maximum luminescence intensity (Imax) [1] | Relative luminescence activity integrated (1 min) [1] | Half bandwidth FWHM (purified nanoKAZ) [nm] | Maximum wavelength λmax (purified nanoKAZ) [nm] | luminescence pattern [2] | Relative luminescence activity integrated (1 min) [2] | Relative maximum luminescence intensity (Imax) [2] | activity relative to furimazine ([2]; higher than that of furimazine)
O=c1c(Cc2cccc(O)c2)nc2c(Cc3ccccc3)[nH]c(-c3ccc(O)cc3)cn1-2 [3iso-Coelenterazine] | 1.1 | 0.9 | 75 | 460 | did not show the rapid-decay luminescence patterns | 1.4 | 1.5 | –
Cc1cccc(Cc2nc3c(Cc4ccccc4)[nH]c(-c4ccc(O)cc4)cn-3c2=O)c1 [3me-Coelenterazine] | 10.3 | 4.2 | 73 | 458 | – | 7.9 | 11.5 | –
COc1cccc(Cc2nc3c(Cc4ccccc4)[nH]c(-c4ccc(O)cc4)cn-3c2=O)c1 [3meo-Coelenterazine] | 11.1 | 6.6 | 71 | 458 | – | 8.2 | 11.6 | –
Oc1ccc(Cc2nc3c(Cc4ccccc4)nc(-c4ccc(O)cc4)cn3c2O)cc1 [Coelenterazine (CTZ), Coelenterazine] | 1.0 | 1.0 | 73 | 457 | – | 1.0 | 1.0 | –
O=c1c(Cc2ccco2)nc2c(Cc3ccccc3)[nH]c(-c3ccccc3)cn1-2 [Furimazine] | 6.8 | 5.5 | 73 | 452 | did not show the rapid-decay luminescence patterns | 5.3 | 4.8 | –
O=c1c(Cc2ccc(C(F)(F)F)cc2)nc2c(Cc3ccccc3)[nH]c(-c3ccc(O)cc3)cn1-2 [cf3-Coelenterazine] | 4.7 | 1.4 | 71 | 454 | – | 2.4 | 5.2 | –
Oc1ccc(-c2cn3c(O)c(Cc4ccccc4)nc3c(Cc3ccccc3)n2)cc1 [h-Coelenterazine] | 19.7 | 12.5 | 71 | 455 | – | 11.1 | 17.1 | –
Cc1ccc(Cc2nc3c(Cc4ccccc4)[nH]c(-c4ccc(O)cc4)cn-3c2=O)cc1 [me-Coelenterazine] | 4.2 | 1.3 | 75 | 460 | – | 3.0 | 5.2 | –
COc1ccc(Cc2nc3c(Cc4ccccc4)[nH]c(-c4ccc(O)cc4)cn-3c2=O)cc1 [meo-Coelenterazine] | 7.7 | 3.4 | 73 | 458 | – | 6.3 | 8.9 | –
bis-Coelenterazine | 13.5 | 10.1 | 73 | 453 | did not show the rapid-decay luminescence patterns; also recorded: continuous emission without decay of luminescence | 11.5 | 10.8 | at least 2 fold
et-Coelenterazine | 2.4 | 0.5 | 75 | 458 | – | 2.8 | 4.4 | –
i-Coelenterazine | 2.9 | 0.8 | 73 | 457 | – | 2.0 | 3.3 | –
n-Coelenterazine | 4.1 | 1.2 | 71 | 454 | – | 3.3 | 4.9 | –
αmeh-Coelenterazine | 0.1 | 0.1 | 73 | 462 | – | 0.1 | 0.1 | –
